The test system of assay [1] is histone H3K14 acetylation (HBO1 mediated) in U2OS cells. As to the kind of experiment: Histone H3 Lysine 14 Acetylation Biomarker Assay (96 well, U2OS). Type of assay: cell-based. Conditions: Homo sapiens, 24 h, Table 6, H3K14ac, 24 hours incubation, serum free medium. The gist of the method: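 U2OS cells treated 24 h with compound in serum-free medium, then fixed and immunostained for H3K14ac (Alexa647) with Hoechst nuclear stain. High-content imaging gives mean nuclear intensity per cell, converted to % inhibition against DMSO and 10 μM reference-inhibitor controls; IC50 from four-parameter logistic fit.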

Assay [2] relates to histone H3K23 acetylation (KATE mediated) in U2OS cells. As to the kind of experiment: Histone H3 Lysine 23 Acetylation Biomarker Assay (U2OS). Type of assay: cell-based. The settings on record: Homo sapiens, 96 well, 24 hours incubation. The method in brief: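 U2OS cells were treated with compound for 24 h, then fixed and immunostained for H3K23ac with Hoechst nuclear counterstain. Per-nucleus Alexa647 intensity was quantified by high-content imaging and converted to % inhibition against DMSO and 10 μM reference-inhibitor controls. IC50 was derived from a four-parameter logistic fit.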

The target in assay [3] is T1, TIP60-KAT5 (Homo sapiens, UniProt Q92993).
T1 construct: encoding amino acid residues 2 to 461 (Uniprot Q92993-2) of human KAT5 isoform; made in house; host or cells: E. coli BL21 DE3
T1 sequence (Q92993 2-461 isoform Q92993-2): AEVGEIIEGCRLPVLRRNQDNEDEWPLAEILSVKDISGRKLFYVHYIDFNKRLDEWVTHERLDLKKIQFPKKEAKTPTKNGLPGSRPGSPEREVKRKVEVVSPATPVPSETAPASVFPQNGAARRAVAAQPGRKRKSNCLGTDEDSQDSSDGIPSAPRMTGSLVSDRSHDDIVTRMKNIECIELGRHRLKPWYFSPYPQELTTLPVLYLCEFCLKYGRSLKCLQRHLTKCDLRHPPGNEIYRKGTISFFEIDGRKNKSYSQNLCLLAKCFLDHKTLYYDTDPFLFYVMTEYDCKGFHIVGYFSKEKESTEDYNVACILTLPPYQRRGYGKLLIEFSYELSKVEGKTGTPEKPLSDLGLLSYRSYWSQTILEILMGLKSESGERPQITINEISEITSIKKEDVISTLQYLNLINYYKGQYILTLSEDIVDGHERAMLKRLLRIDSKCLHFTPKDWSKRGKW
In words: Revised Acetyltransferase Biochemical Assay, KAT5. The settings on record: 10 nM KAT5, 1 μM AcCoA, 100 nM histone H4, 90 min.

In assay [4] the target is T1, TIP60-KAT5. As to the kind of experiment: Acetyltransferase biochemical assay (AlphaScreen), KAT5. The settings on record: Table 1 (TIP60-KAT5); 0.4 μM Acetyl coenzyme A, histone H4, 10 nM enzyme. For orientation: Bead proximity is the source of the signal in Alpha formats.
Assay [5] concerns histone H2A.Z Lysine 7 acetylation (TIP60 mediated) in U2OS cells. As to the kind of experiment: H2A.Z Lysine 7 Acetylation Biomarker Assay (96 well, U2OS). The settings on record: Homo sapiens, Table 7, H2A.Z K7ac, 24 hours incubation, serum free medium. In kind it is cell-based. On the procedure:
To discover a global TIP60/KAT5 cellular biomarker useful for monitoring PD responses of TIP60 inhibition in vitro and in vivo, various histone modifications were assessed for TIP60 dependence through genetic (TIP60 siRNA and CRISPR/Cas9) or TIP60 pharmacological inhibition. This analysis clearly identified acetylation of the histone variant H2A.Z at Lysine 7 (H2A.ZK7ac) as a global histone mark which is TIP60-dependent in both human and mouse cells. To a lesser extent, TIP60 also acetylated lysine 4 and 11 of H2A.Z.
Compounds may be tested for their ability to inhibit the histone H2A.Z Lysine 7 acetylation biomarker (which is TIP60 mediated) in the following assay:
The cell line U2OS was seeded at a density of 9,000 cells per well in 96 well optical quality tissue culture plates in RPMI medium and 10% foetal bovine serum, and allowed to adhere for 24 hours under standard culture conditions (37 degree Celsius, 5% CO2). At the end of this period the cells were washed with serum free medium. Compound dilutions prepared in DMSO were added to the serum free medium, with negative control wells reserved for treatment with DMSO only and positive controls receiving a potent inhibitor compound (e.g. Example 146) at 20 μM concentration. After incubation for 24 hours, the cells were fixed with 3.7% formaldehyde in PBS for 20 minutes at room temperature, washed with phosphate buffer saline containing 0.1% Tween 20 and blocked with Odyssey blocking buffer (LI-COR, Lincoln, Nebr.) containing 0.1% TritonX100. Anti-H2A.Z K7ac specific antibody (Abcam) in Odyssey blocking buffer containing 0.1% Tween 20 was added and incubated for 14 hours at 4 degree Celsius. After washing, a secondary antibody labelled with Alexa647 dye (LifeTechnologies) and Hoechst 33342 (10 μM, SigmaAldrich) were added for 1 hour incubation. Plates were washed and read on a PerkinElmer Phenix high content imaging platform. Using a Columbus image analysis pipeline, individual nuclei were located by Hoechst 33342 stain and the acetylation level was calculated from the Alexa647-related intensity in the same area. The resulting mean intensity per cell was directly converted to percent inhibition relative to controls on the same plate and the data fitted against a four-parameter logistic model to determine the 50% inhibitory concentration (IC50).

Drawing on patent publication US20210380548A1, “Fused [1,2,4]Thiadiazine Derivatives Which Act as KAT Inhibitors of the MYST Family” (CTxT Pty Limited, priority 2017, published 2021), this text covers IC50 for four molecules.

pIC50: −log10 of the molar value.

For orientation: pIC50 means the IC50 on a negative log10 scale, so that one unit is a factor of ten. A higher pIC50 goes with a low IC50. As for `O=C(NCCc1ccccc1-n1nccn1)C1=Nc2ccc(I)cc2S(=O)(=O)N1` [Example 60, N-(2-(2H-1,2,3-triazol-2-yl)phenethyl)-7-iodo-2H-benzo[e][1,2,4]thiadiazine-3-carboxamide 1,1-dioxide], the pIC50 in assay [1] was 5.79; in assay [2] it was 5.85; in assay [3], 7.24; in assay [4] it was 6.49; in assay [5], 5.69.
`O=C(NCC(c1ccccc1)c1ncco1)C1=Nc2ccc(Br)cc2S(=O)(=O)N1` (centres unmarked) [Example 1, 7-Bromo-N-(2-(oxazol-2-yl)-2-phenylethyl)-2H-benzo[e][1,2,4]thiadiazine-3-carboxamide 1,1-dioxide]: the pIC50 is 6.50 in assay [1]; 7.19 in assay [2]; 7.17 in assay [3]; 6.54 in assay [4]; 5.66 in assay [5].
For `O=C(NCCc1ccccc1OC(F)F)C1=Nc2ccc(I)cc2S(=O)(=O)N1` [Example 91], the pIC50 in assay [1] is 6.21; in assay [2], 5.11; in assay [3], 7.05; in assay [4], 6.68; in assay [5], 5.00.
Taken in the same sequence, the figures for `O=C(NCC(c1ccccc1)c1ncco1)C1=Nc2ccccc2S(=O)(=O)N1` (centres unmarked) [Example 46, N-(2-(oxazol-2-yl)-2-phenylethyl)-2H-benzo[e][1,2,4]thiadiazine-3-carboxamide 1,1-dioxide] were 5.09, 6.75, 5.39, 5.01 and 4.52.
